Reference: US8192962B2, “Processes for detecting toxic substances” (Daikin Industries, Ltd., priority 2001, dated 2012)

Tested on: Stress protein genes
Test: DNA chip mRNA expression in yeast, stress protein genes (Table 6)
Type: cell-based, Saccharomyces cerevisiae S288C
Summary of the method: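 Chemical exposure: 2 h, log-phase S. cerevisiae S288C, YPD, 25° C., dose set to inhibit growth without death. Profiling: mRNA labeled by reverse transcription with Cy3- or Cy5-dUTP, hybridized to whole-genome array. Output: fluorescence ratio against untreated culture.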

In the case of `CCCCCCCCCCCCc1ccc(S(=O)(=O)[O-])cc1.[Na+]` [(17), sodium dodecylbenzosulfonate], the “The level of expressed mRNA in the presence of chemical substance/The level of expressed mRNA in the absence of chemical substance” value (yeast gene YIL033C) is reported as 1.0, the “The level of expressed mRNA in the presence of chemical substance/The level of expressed mRNA in the absence of chemical substance” value (yeast gene YIR037W) is reported as 1.7 and the “The level of expressed mRNA in the presence of chemical substance/The level of expressed mRNA in the absence of chemical substance” value (yeast gene YIR038C) is reported as 2.8. For the same molecule, the “The level of expressed mRNA in the presence of chemical substance/The level of expressed mRNA in the absence of chemical substance” value (yeast gene YJL128C) was 1.0, the “The level of expressed mRNA in the presence of chemical substance/The level of expressed mRNA in the absence of chemical substance” value (yeast gene YJL158C) was 1.4 and the “The level of expressed mRNA in the presence of chemical substance/The level of expressed mRNA in the absence of chemical substance” value (yeast gene YJL159W) was 1.4. The “The level of expressed mRNA in the presence of chemical substance/The level of expressed mRNA in the absence of chemical substance” value (yeast gene YJL165C) was 1.3, the “The level of expressed mRNA in the presence of chemical substance/The level of expressed mRNA in the absence of chemical substance” value (yeast gene YJR045C) was 0.7 and the “The level of expressed mRNA in the presence of chemical substance/The level of expressed mRNA in the absence of chemical substance” value (yeast gene YJR090C) was 1.1. For the same molecule, the “The level of expressed mRNA in the presence of chemical substance/The level of expressed mRNA in the absence of chemical substance” value (yeast gene YKL161C) was 1.4, the “The level of expressed mRNA in the presence of chemical substance/The level of expressed mRNA in the absence of chemical substance” value (yeast gene YKL163W) was 0.8 and the “The level of expressed mRNA in the presence of chemical substance/The level of expressed mRNA in the absence of chemical substance” value (yeast gene YKL164C) was 0.8. The “The level of expressed mRNA in the presence of chemical substance/The level of expressed mRNA in the absence of chemical substance” value (yeast gene YKL210W) was 0.7, the “The level of expressed mRNA in the presence of chemical substance/The level of expressed mRNA in the absence of chemical substance” value (yeast gene YKR053C) was 2.8 and the “The level of expressed mRNA in the presence of chemical substance/The level of expressed mRNA in the absence of chemical substance” value (yeast gene YLL024C) was 0.5. The “The level of expressed mRNA in the presence of chemical substance/The level of expressed mRNA in the absence of chemical substance” value (yeast gene YLL026W) was 1.7, the “The level of expressed mRNA in the presence of chemical substance/The level of expressed mRNA in the absence of chemical substance” value (yeast gene YLL039C) was 1.6 and the “The level of expressed mRNA in the presence of chemical substance/The level of expressed mRNA in the absence of chemical substance” value (yeast gene YLL060C) was 1.9. For the same molecule, the “The level of expressed mRNA in the presence of chemical substance/The level of expressed mRNA in the absence of chemical substance” value (yeast gene YLR006C) was 1.6, the “The level of expressed mRNA in the presence of chemical substance/The level of expressed mRNA in the absence of chemical substance” value (yeast gene YLR109W) was 1.1 and the “The level of expressed mRNA in the presence of chemical substance/The level of expressed mRNA in the absence of chemical substance” value (yeast gene YLR259C) was 0.8. The “The level of expressed mRNA in the presence of chemical substance/The level of expressed mRNA in the absence of chemical substance” value (yeast gene YML007W) was 1.0, the “The level of expressed mRNA in the presence of chemical substance/The level of expressed mRNA in the absence of chemical substance” value (yeast gene YML070W) was 1.2 and the “The level of expressed mRNA in the presence of chemical substance/The level of expressed mRNA in the absence of chemical substance” value (yeast gene YMR021C) was 3.3. The “The level of expressed mRNA in the presence of chemical substance/The level of expressed mRNA in the absence of chemical substance” value (yeast gene YMR173W) was 1.9, the “The level of expressed mRNA in the presence of chemical substance/The level of expressed mRNA in the absence of chemical substance” value (yeast gene YMR186W) was 0.7 and the “The level of expressed mRNA in the presence of chemical substance/The level of expressed mRNA in the absence of chemical substance” value (yeast gene YNL064C) was 0.7. The “The level of expressed mRNA in the presence of chemical substance/The level of expressed mRNA in the absence of chemical substance” value (yeast gene YNL160W) was 1.0, the “The level of expressed mRNA in the presence of chemical substance/The level of expressed mRNA in the absence of chemical substance” value (yeast gene YNL241C) was 1.0 and the “The level of expressed mRNA in the presence of chemical substance/The level of expressed mRNA in the absence of chemical substance” value (yeast gene YNR076W) was 1.5. The “The level of expressed mRNA in the presence of chemical substance/The level of expressed mRNA in the absence of chemical substance” value (yeast gene YOL064C) was 1.2, the “The level of expressed mRNA in the presence of chemical substance/The level of expressed mRNA in the absence of chemical substance” value (yeast gene YOL161C) was 1.1 and the “The level of expressed mRNA in the presence of chemical substance/The level of expressed mRNA in the absence of chemical substance” value (yeast gene YOR008C) was 0.8. The “The level of expressed mRNA in the presence of chemical substance/The level of expressed mRNA in the absence of chemical substance” value (yeast gene YOR009W) was 0.9, the “The level of expressed mRNA in the presence of chemical substance/The level of expressed mRNA in the absence of chemical substance” value (yeast gene YOR010C) was 1.4 and the “The level of expressed mRNA in the presence of chemical substance/The level of expressed mRNA in the absence of chemical substance” value (yeast gene YOR027W) was 0.9. For the same molecule, the “The level of expressed mRNA in the presence of chemical substance/The level of expressed mRNA in the absence of chemical substance” value (yeast gene YOR208W) was 1.6, the “The level of expressed mRNA in the presence of chemical substance/The level of expressed mRNA in the absence of chemical substance” value (yeast gene YPL059W) was 1.8 and the “The level of expressed mRNA in the presence of chemical substance/The level of expressed mRNA in the absence of chemical substance” value (yeast gene YPL106C) was 0.5. The “The level of expressed mRNA in the presence of chemical substance/The level of expressed mRNA in the absence of chemical substance” value (yeast gene YPL140C) was 0.9, the “The level of expressed mRNA in the presence of chemical substance/The level of expressed mRNA in the absence of chemical substance” value (yeast gene YPL194W) was 1.0 and the “The level of expressed mRNA in the presence of chemical substance/The level of expressed mRNA in the absence of chemical substance” value (yeast gene YPL223C) was 1.0. For the same molecule, the “The level of expressed mRNA in the presence of chemical substance/The level of expressed mRNA in the absence of chemical substance” value (yeast gene YPL240C) was 0.8, the “The level of expressed mRNA in the presence of chemical substance/The level of expressed mRNA in the absence of chemical substance” value (yeast gene YPR005C) was 1.0 and the “The level of expressed mRNA in the presence of chemical substance/The level of expressed mRNA in the absence of chemical substance” value (yeast gene YPR026W) was 0.9.
